1 molecule from PMC10779143, “Collagen-like Osteoclast-Associated Receptor (OSCAR)-Binding Motifs Show a Co-Stimulatory Effect on Osteoclastogenesis in a Peptide Hydrogel System” (International Journal of Molecular Sciences, 2023) can be followed below.

Data set [1] in a line: CD analysis of secondary structure (collagen triple helix) and refolding. Format: physicochemical. The note with it: CD Buffer pH 7.4.
Experimental: Secondary structures of OP1_Hyp, OP1_Pro, and OCol1 were analysed by circular dichroism (CD) spectroscopy using a Jasco® J-810 spectropolarimeter (UCI, Irvine, CA, USA) equipped with a Peltier temperature controller. OP1_Hyp and OP1_Pro were resuspended up to a concentration of 0.5 mg/mL in a CD transparent buffer (10 mM K2HPO4, 10 mM KH2PO4, 150 mM KF, pH 7.4, CD Buffer) [15] and kept for 24 h at 4 °C to allow for the formation of the collagen triple helical structure. OCol1 was exchanged to CD Buffer using a PD 10 disposable desalting column (GE17-0851-01, Merck, Feltham, UK). Briefly, the column was equilibrated with five column volumes of CD Buffer before the addition of OCol1 to the storage buffer. After flow-through collection, 0.5 mL fractions were collected into 1.5 mL Eppendorf tubes. The OCol1 elution fractions were quickly analysed by CD, and the one with the highest concentration (0.2 mg/mL) was used. CD spectra were measured between 190 nm and 260 nm at 10 °C using a 1 mm path-length CD-matched quartz cuvette (Starna Scientific, Ilford, UK). Data were collected every 0.2 nm with a 1 nm bandwidth. Spectral baselines were corrected by subtracting the spectrum of CD Buffer (blank) collected under the same conditions. Additionally, the thermal stability of OP1_Hyp, OP1_Pro, and OCol1 was analysed. Thermal transition profiles were recorded between 10 °C and 60 °C (OP1_Hyp and OP1_Pro) or 70 °C (OCol1) at 222 nm with a data pitch of 0.2 °C, a bandwidth of 1 nm, a detector response time of 32 s, and a temperature slope of 1 °C/min. Samples were cooled back to 10 °C after the different transitions had been completed, and final spectra were recorded at that temperature. Ellipticity in millidegrees was converted to mean residue molar ellipticity Θ (degree cm^2 dmol^−1) by normalising for the number of residues on each peptide or protein [23].
Data set [2] has as its system Raw 264.7 cells. As to the kind of experiment: TRAP staining / osteoclast morphology of Raw 264.7 cells on peptide-coated tissue culture plastic. Format: cell-based. As for the experimental part:
(§1) Raw 264.7 cells were cultured and passaged as previously described. Cell adhesion to OP1_Hyp and OP1_Pro was assessed as shown by Barrow et al.. Briefly, 48-well plates were coated with 10 µg/mL of OSCAR-binding peptides overnight at 4 °C. The excess peptide was then removed by washing with PBS before adding 1% BSA to block non-specific binding sites for 1 h at 25 °C. Raw 264.7 cells were then resuspended at a concentration of 2 × 10^5 cells/mL and added to the well. Cells were cultured with different concentrations of human RANKL (hRANKL) (catalogue number: 310-01 from Peprotech, London, UK) (0–100 ng/mL) for up to 5 days to assess the contribution of the OSCAR-binding peptides OP1_Hyp and OP1_Pro to the differentiation of Raw 264.7 cells to mature OCs.
After 5 days of post-culture, Raw 264.7 cells were fixed in 4% PFA for 15 min at room temperature. TRAP was stained following the manufacturer’s protocol and evaluated by light microscopy (ThermoFisher, Swindon, UK). Multinucleated TRAP+ cells containing more than three nuclei were scored as mature OCs.

Data set [3] has as its system TRAP gene expression, Raw 264.7 cells. The data set is described as follows: qRT-PCR TRAP gene expression, Raw 264.7 cells on peptide-coated TCP. Format: cell-based. As for the experimental part:
as §1
(§2) Gene expression of OC markers was evaluated as previously described. A StepOne™ Real-Time PCR System (Applied Biosystems, Warrington, UK) was used, with TaqMan probes and a universal PCR Master Mix (Life Technologies, Carlsbad, CA, USA, 4304437) in a total volume of 10 µL. The TaqMan probes for TRAP and OSCAR were Mm00475698_m1 and Mm01338227_g1, respectively. Data were analysed using the 2^−∆Ct method and normalised to the endogenous housekeeping gene GAPDH (Mm99999915_g1). Experiments were performed in triplicate.
Background: Quantitative PCR measures a nucleic acid by following its amplification.

The subject of data set [4] is OSCAR gene expression, Raw 264.7 cells. The data set is described as follows: qRT-PCR OSCAR gene expression, Raw 264.7 cells on peptide-coated TCP. As to conditions: n = 3. Format: cell-based. As for the experimental part: as §1, §2
The subject of data set [5] is Raw 264.7 cells. As to the kind of experiment: F-actin staining / osteoclast-like morphology and differentiation of Raw 264.7 cells on hydrogels. Format: cell-based. As to conditions: 10 ng/mL hRANKL.
The subject of data set [6] is OSCAR gene expression, Raw 264.7 cells. As to the kind of experiment: qRT-PCR OSCAR gene expression, Raw 264.7 cells on hydrogels. The class given is cell-based. The note with it: 10 ng/mL hRANKL, relative to GAPDH, n = 3. From the text:
Fmoc-FF/S (Fmoc-diphenylalanine/serine, 1:1 molar ratio) and Fmoc-FF/S/RGD (1:0.5:0.5 molar ratio) peptides were provided by Biogelx Ltd., Edinburgh, UK. Hydroxyapatite (Hap) nanopowder (formula: Ca10(PO4)6(OH)2, with average particle size <200 nm) was purchased from Sigma-Aldrich (Dorset, UK, product code: 677418) and used as received. Hydrogels made up of Fmoc-based peptides and hydroxyapatite were fabricated as described previously. Hap-decorated Fmoc-FF/S/RGD hydrogels (FF/S/RGDH) were tested in combination with OP1_Hyp, OP1_Pro, and OCol1 to evaluate the contribution of OSCAR as a co-stimulatory pathway for OCP differentiation. […]
The day after hydrogel fabrication, 2 mL of Raw 264.7 cells (4 × 10^5 cells/mL) were seeded on top of FF/S/RGDH hydrogels containing the collagen-like OSCAR-binding peptides (OP1_Hyp, OP1_Pro) or recombinant collagen-like protein (OCol1). […] After 7 days of culture, cell viability on the peptide- or protein-modified FF/S/RGDH hydrogels was evaluated by using a LIVE/DEAD assay (ThermoFisher Scientific, Swindon, UK). […] After 30 min of incubation, cells were washed 3 times in PBS and imaged using a Nikon Eclipse 50i fluorescence microscope (Tokyo, Japan) (emission wavelengths: green channel for live cells: 515 nm; red channel for dead cells: 635 nm; excitation wavelength: 495 nm). […]
Gene expression of OC markers was evaluated as previously described. […]

Entries after “also recorded” stand apart in the source; their conditions may differ. Where a SMILES comes first, the peptide text is derived from it. [ ]: non-standard residue; d: D form. Hyp = O=C(O)[C@@H]1C[C@@H](O)CN1

For the molecule `CC(=O)NCC(=O)N1CCC[C@H]1C(=O)N1C[C@H](O)C[C@H]1C(=O)NCC(=O)N1CCC[C@H]1C(=O)N1C[C@H](O)C[C@H]1C(=O)NCC(=O)N1CCC[C@H]1C(=O)N1C[C@H](O)C[C@H]1C(=O)NCC(=O)N[C@@H](C)C(=O)N1C[C@H](O)C[C@H]1C(=O)NCC(=O)N1CCC[C@H]1C(=O)N[C@@H](C)C(=O)NCC(=O)N[C@@H](Cc1ccccc1)C(=O)N[C@@H](C)C(=O)NCC(=O)N1CCC[C@H]1C(=O)N1C[C@H](O)C[C@H]1C(=O)NCC(=O)N1CCC[C@H]1C(=O)N1C[C@H](O)C[C@H]1C(=O)NCC(=O)N1CCC[C@H]1C(=O)N1C[C@H](O)C[C@H]1C(N)=O` [OP1_Hyp] (Ac-GP[Hyp]GP[Hyp]GP[Hyp]GA[Hyp]GPAGFAGP[Hyp]GP[Hyp]GP[Hyp]-NH2), the “Triple helical features (positive ellipticity band) at 70 °C” value in data set [1] (CD at 70 °C) is given as “disappeared from the CD spectra”. For the same molecule, the “Secondary structure by CD” value in data set [1] (CD spectra 190-260 nm at 10 °C, 0.5 mg/mL peptides, 0.2 mg/mL OCol1) is “a band of positive ellipticity with a maximum at ~220 nm and a deep band of negative ellipticity with a minimum at ~198 nm, previously associated with the typical conformation of the collagen triple helix”. The “Refolding of the triple helix after denaturation” value in data set [1] (cooling from 70 °C to 10 °C, approximately 30 min, 210 µM peptides, 12 µM OCol1) is “partial recovery of the collagen structure”. In the data set on Raw 264.7 cells [2] (5 days on coated TCP, 10 ng/mL hRANKL (suboptimal)), the “Osteoclast features / TRAP staining, 10 ng/mL hRANKL” value is reported as “more cells showing OC-like features such as multinucleation; also recorded: still showed signs of osteoclastogenesis”. Also, the “Osteoclast features / TRAP staining, 100 ng/mL hRANKL” value in the data set on Raw 264.7 cells [2] (5 days on coated TCP, 100 ng/mL hRANKL, peptide effect masked by high hRANKL) is recorded as “typical OC features”. In addition, the “Differentiation without hRANKL (TRAP staining)” value in the data set on Raw 264.7 cells [2] (5 days on coated TCP, no hRANKL added) was “not able to trigger any differentiation on their own”. Further, the “OC differentiation effect, lower suboptimal hRANKL, comparison of peptides” value in the data set with Raw 264.7 cells [2] (coated TCP, lower, suboptimal hRANKL) is listed as “much more evident for OP1_Hyp compared to OP1_Pro”. In addition, the “Overall effect on differentiation of Raw 264.7 cells on coated TCP” value with Raw 264.7 cells [2] (used as substrate on TCP) is recorded as “positive effect on differentiation”. In addition, in data set [3] (5 days vs day 1, relative to GAPDH, n = 3), the “TRAP expression, 100 ng/mL hRANKL” value was “significantly higher after 5 days”. The “TRAP expression, 10 ng/mL hRANKL” value in data set [3] (5 days, relative to GAPDH, n = 3, lower than with 100 ng/mL hRANKL) is on record as “TRAP expression was lower”. The “TRAP expression, 0-1 ng/mL hRANKL” value in data set [3] (five days, relative to GAPDH, n = 3) is “either expressed at lower amounts or did not change significantly after five days of culture”. Also, the “OSCAR expression, 100 ng/mL hRANKL” value in data set [4] (5 days vs day 1, relative to GAPDH) is recorded as “significantly higher compared to day 1”. Moreover, the “OSCAR expression, 10 ng/mL hRANKL” value in data set [4] (5 days, relative to GAPDH) is “still significantly higher”. Also, in data set [4] (five days, relative to GAPDH), the “OSCAR expression, 0-1 ng/mL hRANKL” value was “either expressed at lower amounts or did not change significantly after five days of culture”. Moreover, the “Differentiation of Raw 264.7 cells to OCs on collagen-modified hydrogels” value in the data set on Raw 264.7 cells [5] (7 days, incorporated in FF/S/RGDH hydrogel) was “the effect was more evident with OP1_Hyp; also recorded: positive effect on osteoclastogenesis”. In the data set with Raw 264.7 cells [5] (hydrogels), the “OC-like features, improvement vs unmodified hydrogels” value was “greater bioactivity (i.e., higher nuclei/cell distribution, increased cell diameter)”. Further, the “OSCAR expression change, day 3 to day 7” value in data set [6] is “increased significantly between day 3 and day 7 of culture”.
